Test results as given in patent publication US20030130200A1, “Small peptides and methods for treatment of asthma and inflammation” (Hisatek, LLC, priority 1997, published 2003).

Tests used:
mast cells = assay: Rat skin model for inhibition of mast cell degranulation induced by Compound 48/80 (area of capillary permeability/bluing); format: in vivo, rat (male Sprague-Dawley); settings: for % Degranulation: percent mast cell degranulation produced by 48/80, 100 nanomoles peptide, 0.15 μg Compound 48/80
From the text: The Rat Skin Model for Determination of Inhibition of Mast Cell Degranulation
Allergy induced asthma results from exposure of substances (allergens) to which an organism has become hypersensitized. Exposure to allergen results in degranulation of mast cells in the lung, releasing leukotrienes and histamines. […] Respiratory symptoms resulting from such an exposure range from mild (itching and sneezing) to potentially fatal (asthma), including in extreme chronic cases death by anaphylaxis.
In this model, the blood plasma of the experimental rat is labeled with the dye trypan blue. This soluble dye is carried in the bloodstream as a passive marker of plasma itself, and is excluded from live cells. Intact blood vessels including the capillary system, retain this dye under normal circumstances. A compound, which induces degranulation of mast cells (resulting in leukotriene and histamine release), is injected into the skin to simulate allergen-induced degranulation. In these experiments, Compound 48/80 was used for this purpose. In the events following leukotriene and histamine release, capillary permeability is increased, and plasma, dyed blue, leaks from capillaries and dyes the skin surrounding the injection site blue. The area of bluing is a measure of the amount of Compound 48/80 injected.
A compound can be tested for “anti-leukotriene” and/or “anti-histamine” activity by mixing it with Compound 48/80 prior to injection.
The rat skin model was undertaken and validated. Various peptides were tested at a predetermined dose for anti-leukotriene and/or anti-histamine activity. The dose selected allowed a general comparison to f-Met-Leu-Phe, which was standard compound for comparison.
A “dose response” titration was performed for some compounds and compared with the standard compound. Observing serial decreases in the size areas of capillary permeability using serially smaller doses of the putative inhibitory compound validates the inhibition of leukotriene and/or histamine release observed in the initial predetermined dose test.
Reagents were obtained from Sigma or Aldrich, with the exception of ketamine, a veterinary anaesthetic that was obtained from various veterinary suppliers. The rats used were male Sprague-Dawley breed, 220-240 g at time of purchase from B&K International.
For the rat skin reaction, rats were anaesthetized with 0.25 ml 10 mg/ml ketamine. 1.0 ml trypan blue in saline (sterile filtered) was administered in a tail vein, and the back of the rat was shaved. Four intradermal injection sites per rat were used for test and control injections.
Compound 48/80 was prepared as a 1.5 mg/ml stock solution in saline. […] Serial dilutions in saline to working levels were prepared just prior to injection of each rat.
Peptides were prepared as a 23 mM stock solution in DMSO, and stored at −20° C. between experiments. At the time of use, the frozen stock solutions were thawed, and appropriate aliquots added to dilutions of Compound 48/80, along with appropriate amounts of DMSO, to result in the ratio of 5 μl DMSO to 0.1 ml aqueous Compound 48/80.
For injections, 0.1 ml Compound […], +/− test compounds were injected intradermally into anaesthetized, dyed, and shaved rats. Following a 15 minute incubation, the rats were sacrificed by cervical dislocation and the back skin was evulsed and placed on a light box. An image of the backlit skin was digitized using a CCD video capture camera and compatible hardware/software. The digitized image was analyzed using a scientific graphics analysis software package, and the areas of capillary permeability (bluing) were integrated and digital values were obtained for further analysis.
A dose response curve was generated using Compound 48/80 at various doses from ca. 0.01 μg through ca 15 μg. […] A dose of 0.15 μg of Compound 48/80 was selected for conducting further tests.
A dose response curve was prepared for the standard compound, f-Met-Leu-Phe, using the selected dose of 0.15 μg Compound 48/80. […]

[1] = test system: OVA-induced asthmatic mice; assay: OVA-induced bronchial asthma mouse model, Standard/Resolution protocols, drug before each i.n. challenge; format: in vivo, mouse (female BALB/c); settings: 1-, 2- and 3-month groups, versus OVA
From the text: The OVA-Induced Bronchial Asthma Mouse Model for Inhibition of Mast Cell Degranulation
Reagents: Crystalline OVA was obtained from Pierce Chem. Co. (Rockford, Ill.) aluminum potassium sulfate (alum) from Sigma Chem. Co. (St. Louis, Mo.), pyrogen-free distilled water from Baxter, Healthcare Corporation (Deerfield, Ill.), 0.9% sodium chloride (normal saline) from Lymphomed (Deerfield, Ill.) and Trappsol™ HPB-L100 (aqueous hydroxypropyl beta cyclodextrin; 45 wt/vol % aqueous solution) from Cyclodextrin Technologies Development, Inc. (Gainesville, Fla.). The OVA (500 μg/ml in normal saline) was mixed with equal volumes of 10% (wt/vol) alum in distilled water. The mixture (pH 6.5 using 10 N NaOH) after incubation for 60 minutes at room temperature underwent centrifugation at 750 g for 5 minutes; the pellet was resuspended to the original volume in distilled water and used within one hour.
The selective 5-lipoxtgenase inhibitor, Zileuton (N-[1-benzo[b]thien-2-ylethyl]-N-hydroxyurea; J. Pharmacol Exp Ther. 1991; 256: 929-937), was kindly provided by Drs. Bell and George W. Carter (Abbott Laboratories, Abbott Part, Ill.). Zileuton was dissolved in Trappsol.™. Histatek, Inc. (Seattle, Wash.) provided the mast cell degranulation inhibitor, f-Met-Leu-Phe-Phe (“HK-X”).
Female BALB/c […] (6-8 wk of age at purchase; D and K, Seattle Wash.) were housed under conventional conditions for the studies.
Allergen Immunization/Challenge Protocols: Mice received an i.p. injection of 0.2 ml (100 μg) of OVA with alum on the different protocols of Standard (FIG. 5A) and Resolution (FIG. 5B) (J. Exp Med. 1996; 184: 1483-1494). According to the different protocols, mice were anesthetized with 0.2 ml i.p. of ketamine (0.44 mg/ml)/xylazine (6.3 mg/ml) in normal saline before receiving an intranasal (i.n.) does of 100 μg OVA in 0.05 ml normal saline and an i.n. dose of 50 μg OVA in 0.05 ml normal saline separately on different days. Two control groups were used. Accordingly, the first group received normal saline with alum i.p. and normal saline without alum i.n.; the second group received OVA with alum i.p., OVA without alum i.n., and normal saline, alone.
The trachea and left lung (the right lung is used for bronchoalveolar lavage (“BAL”)) were obtained and fixed in 10% neutral formaldehyde solution at room temperature for 6˜15h. After being embedded in paraffin, the tissues were cut into 5-um sections and processed with the different staining or immunolabling further. Discombe's eosinophil staining was used for counting the cell numbers with the counterstain of methylene blue. The eosinophil number per unit airway area (2,200 μm^2) was determined by morphometry (J. Pathol. 1992; 166: 395-404; Am Rev Respir Dis. 1993; 147:448-456). Fibrosis was identified with the Masson's trichrome staining. Airway mucus was identified by the following staining method: methylene blue, hematoxylin and eosin, mucicarmine, alcian blue, and alcian blue/periodic acid-Schiff (PAS) reaction (Troyer, H., “Carbohydrates” in Principles and Techniques of Histochemistry, Little, Brown and Company, Boston, Mass., 1980: 89-121; Sheehan, D. C., et al., “Carbohydrates” in Theory and Practice of Histotechnology, Battle Press, Columbus, Ohio, 1980: 159-179). Mucin was stained with mucicarmine solution; metanil yellow counterstain was employed.
Acidic mucin and sulfated mucosubstances were stained with alcian blue, pH 2.5; nuclear fast red counterstain was used. Neutral and acidic mucosubstances were identified by alcian blue. pH 2.5, and PAS reaction. The degree of mucus plugging of the airways (0.5-0.8 mm in diameter) was also assessed by morphometry. The percent occlusion of airway diameter by mucus was classified on a semiquantitative scale from 0 to 4+ as described in Figure Legends. The histologic and morphometric analyses were performed by individuals blinded to the protocol design. […]

| Compound | % Degranulation (mast cells) [%] | Reduction of airway eosinophils over time course [1] | Inhibition of degranulation induced by Compound 48/80, dose response curve (mast cells; doses of 0 to about 230 nM peptide, 0.15 μg Compound 48/80 (FIG. 2, FIG. 3)) |
| --- | --- | --- | --- |
| f-Met-Leu-Tyr [Example 10] | 30 | – | – |
| N-acetyl-Met-Leu-Phe [Example 3] | 98 | – | – |
| CC(c1cc2ccccc2s1)N(O)C(N)=O (centres unmarked) [Zileuton, N-[1-benzo[b]thien-2-ylethyl]-N-hydroxyurea, reference compound] | – | reduced eosinophils generally through 1-3 month | – |
| f-Met-Leu-Phe [Example 2, reference compound] | 60 | – | Inhibition of degranulation induced by Compound 48/80 was clearly shown |
